Measurements published in the NIST ThermoML archive (doi:10.1021/je050010l).
± gives the expanded uncertainty stated by the source.

Tests used:
[1] = 100.8 kPa, Liquid; for viscosity: Capillary tube (Ostwald / Ubbelohde) method
[2] = refractive index (Na D-line) (dimensionless); conditions: 101.33 kPa, Liquid, Standard Abbe refractometry
[3] = xn = mol fraction of the nth substance listed; conditions: 100.8 kPa, Liquid; for viscosity: Capillary tube (Ostwald / Ubbelohde) method
[4] = refractive index (Na D-line) (dimensionless); xn = mol fraction of the nth substance listed; conditions: 100.8 kPa, Liquid, Standard Abbe refractometry

CC(C)CC(C)(C)C [2,2,4-trimethylpentane]
Conditions	mass density, 288.15 K [kg/m3]	mass density, 298.15 K [kg/m3]	mass density, 308.15 K [kg/m3]	refractive index, 288.15 K	refractive index, 298.15 K	refractive index, 308.15 K	viscosity, 288.15 K [mPa·s]	viscosity, 298.15 K [mPa·s]	viscosity, 308.15 K [mPa·s]
[1]	695.95 ± 0.31	687.74 ± 0.31	679.41 ± 0.32	–	–	–	0.537 ± 0.005	0.48 ± 0.004	0.432 ± 0.004
[2]	–	–	–	1.39404 ± 0.00031	1.389 ± 0.00031	1.38395 ± 0.00031	–	–	–

CC(C)=O [acetone]
Conditions	mass density, 288.15 K [kg/m3]	mass density, 298.15 K [kg/m3]	mass density, 308.15 K [kg/m3]	refractive index, 288.15 K	refractive index, 298.15 K	refractive index, 308.15 K	viscosity, 288.15 K [mPa·s]	viscosity, 298.15 K [mPa·s]	viscosity, 308.15 K [mPa·s]
[1]	796.87 ± 0.22	785.47 ± 0.23	773.91 ± 0.24	–	–	–	0.334 ± 0.003	0.302 ± 0.003	0.274 ± 0.003
[2]	–	–	–	1.36152 ± 0.00031	1.35605 ± 0.00031	1.35057 ± 0.00031	–	–	–

CC(C)=O [acetone] + CC(C)CC(C)(C)C
x1 = 1
Conditions	mass density, 288.15 K [kg/m3]	mass density, 298.15 K [kg/m3]	mass density, 308.15 K [kg/m3]	refractive index, 288.15 K	refractive index, 298.15 K	refractive index, 308.15 K	viscosity, 288.15 K [mPa·s]	viscosity, 298.15 K [mPa·s]	viscosity, 308.15 K [mPa·s]
[3]	796.87 ± 0.22	785.47 ± 0.23	773.91 ± 0.24	–	–	–	0.334 ± 0.003	0.302 ± 0.003	0.274 ± 0.003
[4]	–	–	–	1.36152 ± 0.00031	1.35605 ± 0.00031	1.35057 ± 0.00031	–	–	–

CCO [ethanol]
Conditions	mass density, 288.15 K [kg/m3]	mass density, 298.15 K [kg/m3]	mass density, 308.15 K [kg/m3]	refractive index, 288.15 K	refractive index, 298.15 K	refractive index, 308.15 K	viscosity, 288.15 K [mPa·s]	viscosity, 298.15 K [mPa·s]	viscosity, 308.15 K [mPa·s]
[1]	793.74 ± 0.23	785.17 ± 0.23	776.49 ± 0.24	–	–	–	1.309 ± 0.011	1.084 ± 0.009	0.905 ± 0.008
[2]	–	–	–	1.36342 ± 0.00031	1.35924 ± 0.00031	1.35502 ± 0.00031	–	–	–

CCO [ethanol] + CC(C)=O
x2 = 0
Conditions	mass density, 288.15 K [kg/m3]	mass density, 298.15 K [kg/m3]	mass density, 308.15 K [kg/m3]	refractive index, 288.15 K	refractive index, 298.15 K	refractive index, 308.15 K	viscosity, 288.15 K [mPa·s]	viscosity, 298.15 K [mPa·s]	viscosity, 308.15 K [mPa·s]
[3]	793.74 ± 0.23	785.17 ± 0.23	776.49 ± 0.24	–	–	–	1.309 ± 0.011	1.084 ± 0.009	0.905 ± 0.008
[4]	–	–	–	1.36342 ± 0.00031	1.35924 ± 0.00031	1.35502 ± 0.00031	–	–	–

CCO [ethanol] + CC(C)CC(C)(C)C
x1 = 1
Conditions	mass density, 288.15 K [kg/m3]	mass density, 298.15 K [kg/m3]	mass density, 308.15 K [kg/m3]	refractive index, 288.15 K	refractive index, 298.15 K	refractive index, 308.15 K	viscosity, 288.15 K [mPa·s]	viscosity, 298.15 K [mPa·s]	viscosity, 308.15 K [mPa·s]
[3]	793.74 ± 0.23	785.17 ± 0.23	776.49 ± 0.24	–	–	–	1.309 ± 0.011	1.084 ± 0.009	0.905 ± 0.008
[4]	–	–	–	1.36342 ± 0.00031	1.35924 ± 0.00031	1.35502 ± 0.00031	–	–	–
